Results published in patent publication US20260207769A1, “ANTIBODY DRUG CONJUGATES” (YALE UNIVERSITY, priority 2022, published 2026).

Legend:
WT DLD-1 cells [1] = assay: Single 24 hour treatment, long-term viability of WT DLD-1 cells; type: cell-based, human; conditions: WT DLD-1, 24 hour treatment, days 3, 5 and 7
Protocol: (§1) The effects of treatment with the SN38 or 3E10-SN38 conjugates on the colorectal cancer DLD-1 cell line were investigated. WT and BRCA2^−/− deficient DLD-1 cells were tested. FIG. 13 provides the study protocol and timeline. Each well of a 96-well plate was loaded with 1000 DLD-1 cells. 24 hours post-plating, cells were treated with different concentrations of cWT-SN38 conjugate, cD31N-SN38 conjugate, or SN38 for 24 hours. After treatment, the media was replaced with fresh treatment-free media and was not changed again. Cell viability and half maximal effective concentration (EC50) were tracked every 48 hours post-treatment on days 3, 5, and 7. Half maximal effective concentration (EC50) is a measure of the concentration of a drug, antibody or toxicant which induces a response halfway between the baseline and maximum after a specified exposure time.

[2] = system: SKOV3 ovarian cancer cells; assay: Cell viability of SKOV3 cells at 7 days of treatment; type: cell-based
Protocol: The effect of SN38 and 3E10-SN38 conjugates were investigated in SKOV3 ovarian cancer cells. SKOV3 cells were treated with SN38, various 3E10 antibodies and 3E10-SN38 conjugates.
EC50 values are also included.
The EC50 values were calculated and are set forth below in Table 4.

WT DLD-1 cells [3] = assay: Shorter versus longer term treatment, viability of WT DLD-1 cells; type: cell-based, human
Protocol: To determine whether the EC50 values would change based on the duration of the treatment with 3E10-SN38 conjugates, WT or BRCA2^−/− DLD-1 cells were treated with different concentrations of SN38, cD31N antibody, or cD31N-SN38 conjugate and cell viability, and the EC50 values were tracked over time. Shorter term treatment was defined as a 24 hour treatment followed by a change to fresh treatment-free medium. Longer term treatment was defined as treatment without a change of medium for 7 days (e.g., the treatment is not removed).

BRCA2^−/− DLD-1 cells = assay: Single 24 hour treatment, long-term viability of BRCA2-/- DLD-1 cells; type: cell-based, human; conditions: BRCA2-/- DLD-1, 24 hour treatment, days 3, 5 and 7
Protocol: as §1

[4] = system: DNA damage response proteins; assay: Western blot of DNA damage response proteins in PEO-1 cells; type: cell-based; conditions: 100 nM, 24 and 48 hours
Protocol: PEO-4 (WT) and PEO-1 (BRCA2^−/−) ovarian cancer cells were treated with 100 nM of SN38, cD31N or cD31N-SN38 and collected at 24 and 48 hours of treatment for Western blot analysis to measure specific protein markers of DNA damage response as previously described.

[5] = system: LoVo colorectal cancer cells; assay: Cell viability of LoVo cells after 7 days of treatment; type: cell-based
Protocol: LoVo colorectal cancer cells were treated with SN38, cD31N antibodies, V66 3E10 antibodies, and conjugates of the present disclosure. […] The EC50 values were calculated and are set forth below in Table 3.

[6] = system: DNA damage response proteins, such as 7H2AX, p-ATM, and p-ATR; assay: Western blot of DNA damage response proteins in DLD-1 cells after 96 hours; type: cell-based, human; conditions: 100 nM
Protocol: To measure the expression of DNA damage response proteins at a later time point, DLD-1 cells were treated with 100 nM of SN38, cD31N antibody, or cD31N-SN38 conjugate and collected for Western blot after 96 hours (4 days). Results at the 96 hour time point were consistent with the 24 and 48 hour results.

[7] = system: DNA damage response proteins such as γH2AX, p-ATM, and p-ATR; assay: Western blot of DNA damage response proteins in BRCA2-/- DLD-1 cells; type: cell-based, human
Protocol: SN38 causes DNA damage via inhibition of topoisomerase I. Therefore, DNA damage was measured in both wild-type (WT) and BRCA2 deficient (BRCA2′) DLD-1 cells by induction of γH2AX after treatment with one of the following: no treatment (NT), SN38 alone (SN38), wild-type 3E10 antibody alone (cWT), 3E10-cD31N antibody alone, cWT-SN38 conjugate, or cD31N-SN38 conjugate. After treatment with 100 nM of the antibody or conjugate for 48 hours, the DLD-1 cells were collected for Western blot analysis to measure 7H2AX protein levels. […] These findings were consistent in both WT and BRCA2^−/− DLD-1 cells, but γH2AX protein levels were elevated across all groups in BRCA2^−/− DLD-1 cells.
DNA damage caused by SN38 or 3E10-SN38 conjugates in WT and BRCA2^−/− DLD-1 cells was assessed by measuring the levels of proteins involved in DNA damage response, p-ATM, p-ATR, pBRCA1, Topoisomerase 1 (TOPO-1), pChk2, pChk1, γH2AX and H2AX. DLD-1 cells were treated with 100 nM of SN38, cWT antibody, cD31N antibody, cWT-SN38 conjugate, or cD31N-SN38 conjugate and collected for Western blot after 24 (FIG. 21A) and 48 hours (FIG. 21B). No treatment (NT) was used as control.

[8] = system: PEO-1 (BRCA2^−/−) ovarian adenocarcinoma cells; assay: Cell viability of PEO-1 cells; type: cell-based; conditions: PEO-1 (BRCA2-/-) cells, at 7 days
Description: (§2) Cancer cell lines were acquired from ATCC and cultured according to well known methods in the art. Treatment with cytotoxic agents, antibodies, or ADCs refers to the addition of the cytotoxic agent, antibody or ADC (i.e., DM1 or cD31N-DM1, etc.) to the culture media for a set duration.
The effects of longer-term treatment with SN38 and cD31N-SN38 on PEO-4 (WT) and PEO-1 (BRCA2^−/−) ovarian cancer cells were investigated.

[9] = system: WT DLD-1 colorectal adenocarcinoma cells; assay: Cell viability assay in WT DLD-1 cells; type: cell-based, human
Description: as §2
BRCA2 deficient (BRCA2′) cells are more sensitive to DM1 because BRCA2 participates in DNA double-stranded break (DSB) repair.
The viability assay protocol is set forth in Example 3.

[10] = system: DNA damage response proteins such as γH2AX, p-ATM, and p-ATR; assay: Western blot of DNA damage response proteins in IDH1mut HCT116 cells; type: cell-based; conditions: IDH1mut HCT116, 100 nM, 24 hours
Protocol: DNA damage induced by SN38 or the humanized 3E10-SN38 conjugates in WT and IDH1^mut HCT116 cells was assessed by measuring the levels of proteins involved in DNA damage response, p-ATM, p-ATR, pChk2, pChk1, 7H2AX and H2AX. HCT116 cells were treated with 100 nM of SN38, V66 antibody, or V66-SN38 conjugate and collected for Western blot after 24 hours and the results are shown in FIG. 26. No treatment (NT) was used as control.

CCc1c2c(nc3ccc(O)cc13)-c1cc3c(c(=O)n1C2)COC(=O)[C@]3(O)CC [SN38, SN-38]
EC50 values compared between treatments (WT DLD-1 cells [1]): lower EC50 value than both 3E10-SN38 conjugates | cell viability at the highest concentrations [2]: about 0% | EC50 ([2]; 7 days of treatment): 2.8 nM | cell viability (WT DLD-1 cells [3]; WT DLD-1, day 7 of longer term treatment): cell viability was reduced | cell viability and EC50, longer term versus shorter term treatment (WT DLD-1 cells [3]; WT DLD-1, 7 days without change of medium vs 24 hour treatment): lower cell viability and lower EC50 values than with shorter term treatment | EC50 values compared between treatments (BRCA2^−/− DLD-1 cells): lower EC50 value than both 3E10-SN38 conjugates | protein expression of DNA damage response proteins [4]: protein expression of DNA damage response proteins was increased | EC50 [5]: 5.8 nM | cell viability [5]: strongest effect on cell viability | TOPO-1 levels [6]: TOPO-1 levels were also reduced | expression of DNA damage response proteins [6]: increased expression of DNA damage response proteins | protein levels of DNA damage response proteins ([7]; BRCA2-/- DLD-1, 100 nM, 24 and 48 hour time points): increased the protein levels of DNA damage response proteins such as γH2AX, p-ATM, and p-ATR | TOPO-1 levels ([7]; BRCA2-/- DLD-1, 100 nM, 24 and 48 hours): reduced TOPO-1 levels | γH2AX induction (Western blot) ([7]; BRCA2-/- DLD-1, 100 nM, 24 hours (Example 10)): 7H2AX was induced | γH2AX protein levels (Western blot) ([7]; BRCA2-/- DLD-1 cells, 100 nM, 48 hours (Example 5)): induced the highest levels of γH2AX expression | cell viability [8]: reduced cell viability in a concentration-dependent manner resulting in low EC50 values | EC50 [9]: 6.26 nM | protein levels of DNA damage response proteins [10]: increased the protein levels of DNA damage response proteins such as γH2AX, p-ATM, and p-ATR
